# Laboratory results reported in patent US7101911B2, “Tryptase inhibitors” (Altana Pharma AG, priority 2001, dated 2006).
# Where a name gives a salt, the structure may show the parent alone.
# Target: human tryptase
# Test: Inhibition of human tryptase (apparent dissociation constant, tos-Gly-Pro-Arg-pNA cleavage)
# Assay type: biochemical
# Details: in the presence of substrate; heparin 0.1–50 μg/ml; equilibrium conditions; read-out: Kiapp (apparent dissociation constant of tryptase-inhibitor complex)
# Description: The documented pathophysiological effects of mast cell tryptase are caused directly by the enzymatic activity of the protease. Accordingly, they are reduced or blocked by inhibitors which inhibit the enzymatic activity of the tryptase. A suitable measure for the affinity of a reversible inhibitor to the target protease is the equilibrium dissociation constant Ki of the enzyme-inhibitor complex. This Ki value can be determined via the effect of the inhibitor on the tryptase-induced cleavage of a chromogenic peptide-p-nitroanilide substrate or a fluorogenic peptide-aminomethylcoumarin substrate.
# The dissociation constants for the tryptase-inhibitor complexes are determined under equilibrium conditions in accordance with the general proposals of Bieth (Bieth J G, Pathophysiological interpretation of kinetic constants of protease inhibitors, Bull. Europ. Physiopath. Resp. 16:183–195, 1980) and the methods of Sommerhoff et al. (Sommerhoff C P et al., A Kazal-type inhibitor of human mast cell tryptase: isolation from the medical leech Hirudo medicinalis, characterization, and sequence analysis, Biol. Chem. Hoppe-Seyler 375: 685–694, 1994).
# Human tryptase is isolated from lung tissue or prepared recombinantly; the specific activity of the protease, determined by titration, is usually greater than 85% of the theoretical value. In the presence of heparin (0.1–50 μg/ml) for stabilizing the protease, constant amounts of the tryptase are incubated with increasing amounts of the inhibitors. After an equilibrium between the reaction partners has formed, the remaining enzyme activity after addition of the peptide-p-nitroanilide substrate tos-Gly-Pro-Arg-pNA is determined and the cleavage of the latter is monitored at 405 nm for 3 min. Alternatively, the remaining enzymatic activity can also be determined using fluorogenic substrates. The apparent dissociation constants Kiapp (i.e. in the presence of substrate) are subsequently determined by adapting the enzyme rates to the general equation for reversible inhibitors (Morrison J F, Kinetics of the reversible inhibition of enzyme-catalysed reactions by tight-binding inhibitors, Biochim. Biophys. Acta 185, 269–286, 1969) using non-linear regression: V1/V0=1−{Et+It+Kiapp−[(Et+It+Kiapp)^2−4EtIt]^1/2}/2Et
# V1 and V0 are the rates in the presence and absence, respectively, of the inhibitor, and Et and It are the tryptase and inhibitor concentrations, respectively.
# The apparent dissociation constants determined for the compounds according to the invention are shown in Table A below, where the numbers of the compounds correspond to the numbers of the compounds in the examples.
row,Ki [nM],SMILES
1,0.3,"COC(=O)c1cc(C#CCOC(=O)NCc2cccc(CN)c2)ccc1C#CCOC(=O)NCc1cccc(CN)c1 [Compound 6, Methyl 2,5-bis-[3-(3-aminomethylbenzylaminocarbonyloxy)prop-1-ynyl]benzoate dihydrochloride]"
2,2.3,"COC(=O)c1cc(C#CCOC(=O)NCc2cccc(CN)c2)c(C(=O)OC)cc1C#CCOC(=O)NCc1cccc(CN)c1 [Compound 8, Dimethyl 2,5-bis-[3-(3-aminomethylbenzylaminocarbonyloxy)prop-1-ynyl]terephthalate dihydrochloride]"
3,58,"COC(=O)c1cc(C#CCOC(=O)NCc2ccc(CN)cc2)cc(C#CCOC(=O)NCc2ccc(CN)cc2)c1 [Compound 4, Methyl 3,5-bis-[3-(4-aminomethylbenzylaminocarbonyloxy)prop-1-ynyl]benzoate dihydrochloride]"
4,8.6,"NCc1cccc(CNC(=O)OCC#Cc2ccc(C#CCOC(=O)NCc3cccc(CN)c3)c(C(=O)O)c2)c1 [Compound 7, 2,5-Bis-[3-(3-aminomethylbenzylaminocarbonyloxy)prop-1-ynyl]benzoic acid dihydrochloride]"
5,250,"NCc1ccc(CNC(=O)OCC#Cc2cc(C#CCOC(=O)NCc3ccc(CN)cc3)cc(C(=O)O)c2)cc1 [Compound 5, 3,5-Bis-[3-(4-aminomethylbenzylaminocarbonyloxy)prop-1-ynyl]benzoic acid dihydrochloride]"
6,40,"NCc1cccc(CNC(=O)OCC#Cc2cc(C#CCOC(=O)NCc3cccc(CN)c3)cc(C(=O)O)c2)c1 [Compound 3, 3,5-Bis-[3-(3-aminomethylbenzylaminocarbonyloxy)prop-1-ynyl]benzoic acid dihydrochloride]"
7,1.6,"COC(=O)c1cc(C#CCOC(=O)NCc2cccc(CN)c2)cc(C#CCOC(=O)NCc2cccc(CN)c2)c1 [Compound 2, Methyl 3,5-bis-[3-(3-aminomethylbenzylaminocarbonyloxy)prop-1-ynyl]benzoate dihydrochloride]"
8,6,"CCOC(=O)c1cc(OCC#CCOC(=O)NCc2cccc(CN)c2)c(C(=O)OCC)cc1OCC#CCOC(=O)NCc1cccc(CN)c1 [Compound 9, Diethyl 2,5-bis-[4-(3-aminomethylbenzylaminocarbonyloxy)but-2-ynyl-1-oxy]terephthalate dihydrochloride]"
9,14,"NCc1ccc(CNC(=O)OCC#Cc2cc(C#CCOC(=O)NCc3ccc(CN)cc3)cc(CO)c2)cc1 [Compound 1, 3,5-Bis-[3-(4-aminomethylbenzylaminocarbonyloxy)prop-1-ynyl]-1-hydroxymethyl-benzene dihydrochloride]"
